# Test results: publication PMC8330742, “New benzothieno[2,3-c]pyridines as non-steroidal CYP17 inhibitors: design, synthesis, anticancer screening, apoptosis induction, and in silico ADME profile studies” (Journal of Enzyme Inhibition and Medicinal Chemistry, 2021)
# Assays:
# HOP-62 = experiment: NCI-60 SRB screen; type: cell-based, human; conditions: HOP-62; single dose 10^−5 M
# U251 = experiment: NCI-60 SRB screen; type: cell-based, human; conditions: U251; single dose 10^−5 M
# NCI-H322M = experiment: NCI-60 SRB screen; type: cell-based, human; conditions: single dose 10^−5 M
# UO-31 = experiment: NCI-60 SRB screen; type: cell-based, human; conditions: UO-31; single dose 10^−5 M
# COLO 205 = experiment: NCI-60 SRB screen; type: cell-based, human; conditions: COLO 205; single dose 10^−5 M
# CCRF-CEM = experiment: NCI-60 SRB screen; type: cell-based; conditions: single dose 10^−5 M
# NCI-H226 = experiment: NCI-60 SRB screen; type: cell-based, human; conditions: NCI-H226; single dose 10^−5 M
# HCC-2998 = experiment: NCI-60 SRB screen; type: cell-based, human; conditions: HCC-2998; single dose 10^−5 M
# [1] = test system: panel of 60 cancer cell lines; experiment: NCI-60 SRB screen, mean or range over the panel; type: cell-based, human; conditions: mean over the cell lines; single dose 10^−5 M
# NCI-H460 = experiment: NCI-60 SRB screen; type: cell-based, human; conditions: NCI-H460; single dose 10^−5 M
# OVCAR-3 = experiment: NCI-60 SRB screen; type: cell-based, human; conditions: OVCAR-3; single dose 10^−5 M
# RPMI-8226 = experiment: NCI-60 SRB screen; type: cell-based; conditions: RPMI-8226; single dose 10^−5 M
# MOLT-4 = experiment: NCI-60 SRB screen; type: cell-based; conditions: MOLT-4; single dose 10^−5 M
# SF-295 = experiment: NCI-60 SRB screen; type: cell-based, human; conditions: SF-295; single dose 10^−5 M
# A498 = experiment: NCI-60 SRB screen; type: cell-based, human; conditions: A498; single dose 10^−5 M
# SN12C = experiment: NCI-60 SRB screen; type: cell-based, human; conditions: SN 12 C; single dose 10^−5 M
# HCT-15 = experiment: NCI-60 SRB screen; type: cell-based, human; conditions: HCT-15; single dose 10^−5 M
# CAKI-1 = experiment: NCI-60 SRB screen; type: cell-based, human; conditions: CAKI-1; single dose 10^−5 M
# K-562 = experiment: NCI-60 SRB screen; type: cell-based, human; conditions: K-562; single dose 10^−5 M
# NCI-H23 = experiment: NCI-60 SRB screen; type: cell-based, human; conditions: NCI-H23; single dose 10^−5 M
# SF-268 = experiment: NCI-60 SRB screen; type: cell-based, human; conditions: SF-268; single dose 10^−5 M
# SW-620 = experiment: NCI-60 SRB screen; type: cell-based; conditions: SW-620; single dose 10^−5 M
# HOP-92 = experiment: NCI-60 SRB screen; type: cell-based, human; conditions: HOP-92; single dose 10^−5 M
# SR = experiment: NCI-60 SRB screen; type: cell-based; conditions: single dose 10^−5 M
# MALME-3M = experiment: NCI-60 SRB screen; type: cell-based, human; conditions: single dose 10^−5 M
# NCI-H522 = experiment: NCI-60 SRB screen; type: cell-based, human; conditions: NCI-H522; single dose 10^−5 M
# UACC-62 = experiment: NCI-60 SRB screen; type: cell-based, human; conditions: UACC-62; single dose 10^−5 M
# HT-29 = experiment: NCI-60 SRB screen; type: cell-based; conditions: HT-29; single dose 10^−5 M
# SK-MEL-2 = experiment: NCI-60 SRB screen; type: cell-based, human; conditions: SK-MEL-2; single dose 10^−5 M
# A549/ATCC = experiment: NCI-60 SRB screen; type: cell-based, human; conditions: single dose 10^−5 M
# OVCAR-8 = experiment: NCI-60 SRB screen; type: cell-based, human; conditions: OVCAR-8; single dose 10^−5 M
# MDA-MB-435 = experiment: NCI-60 SRB screen; type: cell-based; conditions: MDA-MB435; single dose 10^−5 M
# ACHN = experiment: NCI-60 SRB screen; type: cell-based; conditions: single dose 10^−5 M
# SNB-75 = experiment: NCI-60 SRB screen; type: cell-based, human; conditions: SNB-75; single dose 10^−5 M
# M14 = experiment: NCI-60 SRB screen; type: cell-based, human; conditions: M14; single dose 10^−5 M
# OVCAR-4 = experiment: NCI-60 SRB screen; type: cell-based, human; conditions: OVCAR-4; single dose 10^−5 M
# SK-MEL-5 = experiment: NCI-60 SRB screen; type: cell-based, human; conditions: SK-MEL-5; single dose 10^−5 M
# SNB-19 = experiment: NCI-60 SRB screen; type: cell-based; conditions: SNB-19; single dose 10^−5 M
# SK-MEL-28 = experiment: NCI-60 SRB screen; type: cell-based; conditions: SK-MEL-28; single dose 10^−5 M
# TK-10 = experiment: NCI-60 SRB screen; type: cell-based, human; conditions: TK-10; single dose 10^−5 M
# NCI/ADR-RES = experiment: NCI-60 SRB screen; type: cell-based, human; conditions: single dose 10^−5 M
# HCT-116 = experiment: NCI-60 SRB screen; type: cell-based, human; conditions: HCT-116; single dose 10^−5 M
# SK-OV-3 = experiment: NCI-60 SRB screen; type: cell-based, human; conditions: SK-OV-3; single dose 10^−5 M
# KM12 = experiment: NCI-60 SRB screen; type: cell-based, human; conditions: KM12; single dose 10^−5 M
# EKVX = experiment: NCI-60 SRB screen; type: cell-based, human; conditions: single dose 10^−5 M
# LOX IMVI = experiment: NCI-60 SRB screen; type: cell-based, human; conditions: single dose 10^−5 M
# RXF 393 = experiment: NCI-60 SRB screen; type: cell-based, human; conditions: RXF 393; single dose 10^−5 M
# SF-539 = experiment: NCI-60 SRB screen; type: cell-based, human; conditions: SF-539; single dose 10^−5 M
# 786-0 = experiment: NCI-60 SRB screen; type: cell-based; conditions: 786-0; single dose 10^−5 M
# HL-60(TB) = experiment: NCI-60 SRB screen; type: cell-based, human; conditions: HL-60 (TB); single dose 10^−5 M
# OVCAR-5 = experiment: NCI-60 SRB screen; type: cell-based, human; conditions: OVCAR-5; single dose 10^−5 M
# IGROV1 = experiment: NCI-60 SRB screen; type: cell-based, human; conditions: IGROV1; single dose 10^−5 M
# UACC-257 = experiment: NCI-60 SRB screen; type: cell-based, human; conditions: UACC-275 (so in the source); single dose 10^−5 M
structure (smiles),measurement,setting,value
COc1ccc(C2NC(=O)Cc3c2sc2c(F)cccc32)c(OC)c1 (stereo not shown) [Compound 3a],Growth inhibition (%),HOP-62,11.63%
same,Growth inhibition (%),U251,2.07%
same,Growth inhibition (%),NCI-H322M,−3.18%
same,Growth inhibition (%),UO-31,32.68%
same,Growth inhibition (%),COLO 205,−16.49%
same,Growth inhibition (%),CCRF-CEM,−5.88%
same,Growth inhibition (%),NCI-H226,13.11%
same,Growth inhibition (%),HCC-2998,−15.27%
same,Mean growth inhibition (%),[1],6.67%
same,Growth inhibition (%),NCI-H460,2.47%
same,Growth inhibition (%),OVCAR-3,−0.33%
same,Growth inhibition (%),RPMI-8226,−2.54%
same,Growth inhibition (%),MOLT-4,2.64%
same,Growth inhibition (%),SF-295,−2.52%
same,Growth inhibition (%),A498,9.33%
same,Growth inhibition (%),SN12C,−0.49%
same,Growth inhibition (%),HCT-15,−3.42%
same,Growth inhibition (%),CAKI-1,23.33%
same,Growth inhibition (%),K-562,12.84%
same,Growth inhibition (%),NCI-H23,0.15%
same,Growth inhibition (%),SF-268,8.45%
same,Growth inhibition (%),SW-620,3.98%
same,Growth inhibition (%),HOP-92,2.88%
same,Growth inhibition (%),SR,28.66%
same,Growth inhibition (%),MALME-3M,15.80%
same,Growth inhibition (%),NCI-H522,4.48%
same,Growth inhibition (%),UACC-62,10.62%
same,Growth inhibition (%),HT-29,−7.86%
same,Growth inhibition (%),SK-MEL-2,−25.13%
same,Growth inhibition (%),A549/ATCC,−10.00%
same,Growth inhibition (%),OVCAR-8,−3.27%
same,Growth inhibition (%),MDA-MB-435,9.40%
same,Growth inhibition (%),ACHN,1.30%
same,Growth inhibition (%),SNB-75,17.27%
same,Growth inhibition (%),M14,4.96%
same,Growth inhibition (%),OVCAR-4,3.35%
same,Growth inhibition (%),SK-MEL-5,2.83%
same,Growth inhibition (%),SNB-19,1.20%
same,Growth inhibition (%),SK-MEL-28,−11.36%
same,Growth inhibition (%),TK-10,−29.42%
same,Growth inhibition (%),NCI/ADR-RES,−2.37%
same,Growth inhibition (%),HCT-116,−0.50%
same,Growth inhibition (%),SK-OV-3,−0.85%
same,Growth inhibition (%),KM12,7.40%
same,Growth inhibition (%),EKVX,7.10%
same,Growth inhibition (%),LOX IMVI,5.88%
same,Growth inhibition (%),RXF 393,−2.63%
same,Growth inhibition (%),SF-539,11.49%
same,Growth inhibition (%),786-0,−7.41%
same,Growth inhibition (%),HL-60(TB),−7.79%
same,Growth inhibition (%),OVCAR-5,−3.20%
same,Growth inhibition (%),IGROV1,8.40%
same,Growth inhibition (%),UACC-257,−6.31%
O=C1Cc2c(sc3c(F)cccc23)C(c2ccccc2[N+](=O)[O-])N1 (stereo not shown) [Compound 3c],Growth inhibition (%),HOP-62,8.52%
same,Growth inhibition (%),U251,14.88%
same,Growth inhibition (%),NCI-H322M,1.00%
same,Growth inhibition (%),UO-31,30.62%
same,Growth inhibition (%),COLO 205,−12.74%
same,Growth inhibition (%),CCRF-CEM,−10.16%
same,Growth inhibition (%),NCI-H226,20.72%
same,Growth inhibition (%),HCC-2998,−18.72%
same,Mean growth inhibition (%),[1],1.33%
same,Growth inhibition (%),NCI-H460,23.13%
same,Growth inhibition (%),OVCAR-3,2.18%
same,Growth inhibition (%),RPMI-8226,4.62%
same,Growth inhibition (%),MOLT-4,−5.89%
same,Growth inhibition (%),SF-295,−0.58%
same,Growth inhibition (%),A498,−15.47%
same,Growth inhibition (%),SN12C,0.94%
same,Growth inhibition (%),HCT-15,−10.00%
same,Growth inhibition (%),CAKI-1,24.17%
same,Growth inhibition (%),K-562,2.86%
same,Growth inhibition (%),NCI-H23,1.41%
same,Growth inhibition (%),SF-268,6.16%
same,Growth inhibition (%),SW-620,20.70%
same,Growth inhibition (%),HOP-92,7.78%
same,Growth inhibition (%),SR,0.60%
same,Growth inhibition (%),MALME-3M,5.53%
same,Growth inhibition (%),NCI-H522,−1.98%
same,Growth inhibition (%),UACC-62,12.83%
same,Growth inhibition (%),HT-29,−12.09%
same,Growth inhibition (%),SK-MEL-2,−25.53%
same,Growth inhibition (%),A549/ATCC,−5.43%
same,Growth inhibition (%),OVCAR-8,−7.33%
same,Growth inhibition (%),MDA-MB-435,−7.97%
same,Growth inhibition (%),ACHN,−0.56%
same,Growth inhibition (%),SNB-75,10.03%
same,Growth inhibition (%),M14,−0.72%
same,Growth inhibition (%),OVCAR-4,7.00%
same,Growth inhibition (%),SK-MEL-5,2.72%
same,Growth inhibition (%),SNB-19,−0.33%
same,Growth inhibition (%),SK-MEL-28,−20.20%
same,Growth inhibition (%),TK-10,−41.81%
same,Growth inhibition (%),NCI/ADR-RES,−5.76%
same,Growth inhibition (%),HCT-116,14.07%
same,Growth inhibition (%),SK-OV-3,6.94%
same,Growth inhibition (%),KM12,−0.49%
same,Growth inhibition (%),EKVX,15.84%
same,Growth inhibition (%),LOX IMVI,2.71%
same,Growth inhibition (%),RXF 393,−24.83%
same,Growth inhibition (%),SF-539,10.42%
same,Growth inhibition (%),786-0,−9.68%
same,Growth inhibition (%),HL-60(TB),−15.87%
same,Growth inhibition (%),OVCAR-5,−8.05%
same,Growth inhibition (%),IGROV1,34.55%
same,Growth inhibition (%),UACC-257,−19.98%
